Test results from US20180200257A1, “METHODS FOR THE TREATMENT OF INFLAMMATORY DISORDERS” (Galapagos NV, priority 2015, published 2018).

System: subjects with moderately to severely active RA who have an inadequate response to methotrexate (MTX)
Test: Study 2 (monotherapy) - Alanine Aminotransferase (ALT) levels
Type: in vivo, human
From the text: Randomized, double-blind, placebo-controlled, multicenter, phase IIb dose finding study of Compound 1 (dosed as a [Compound 1:HCl:3H2O]) administered for 24 weeks as monotherapy to subjects with moderately to severely active rheumatoid arthritis who have an inadequate response to methotrexate alone
Double-blind, placebo-controlled, monotherapy study in subjects with moderately to severely active RA who have an inadequate response to methotrexate (MTX) (oral or parenteral).
280 subjects randomized to one of 3 doses of Compound 1 (dosed as a [Compound 1:HCl:3H2O]) or to placebo, given once daily (q.d.).
Twelve weeks of treatment with Compound 1 (dosed as a [Compound 1:HCl:3H2O]) at 50 mg, 100 mg, or 200 mg q.d.; or placebo. At Week 12, all subjects on placebo and the subjects on the 50 mg dose who have not achieved 20% improvement in swollen joint count (SJC66) and tender joint count (TJC68) will be assigned to 100 mg q.d. in a blinded fashion and will continue treatment until Week 24. Subjects in the other groups will maintain their randomized treatment until Week 24.
ALT levels determination is available at Quest Diagnostics, Clinical Trials, Quest House, 125-135 Staines Road, Hounslow, Middlesex, TW3 3JB, United Kingdom under Catalogue n#84460.
ALT catalyzes the exchange of the amino group of alanine with the oxogroup of 2-ketoglutarate to form pyruvate and glutamate. In the presence of lactic dehydrogenase, pyruvate reacts with NADH to form NAD+, measured spectrophotometrically. Guidelines for the ALT value have been issued by the association for Clinical Biochemistry and Laboratory Medicine, 130-132 Tooley Street LONDON SE1 2TU, united Kingdom, wherein the ALT value should be below 34 U/l in Female and below 52 U/L in male.
Subjects in the other groups maintained their randomized treatment until Week 24.

[1] = 12 weeks results, 50 mg q.d., week 1
[2] = 12 weeks results, 50 mg q.d., week 2
[3] = 12 weeks results, 50 mg q.d., week 4
[4] = 12 weeks results, 50 mg q.d., week 8
[5] = 12 weeks results, 50 mg q.d., week 12
[6] = 12 weeks results, 100 mg q.d., week 1
[7] = 12 weeks results, 100 mg q.d., week 2
[8] = 12 weeks results, 100 mg q.d., week 4
[9] = 12 weeks results, 100 mg q.d., week 8
[10] = 12 weeks results, 100 mg q.d., week 12
[11] = 12 weeks results, 200 mg q.d., week 1
[12] = 12 weeks results, 200 mg q.d., week 2
[13] = 12 weeks results, 200 mg q.d., week 4
[14] = 12 weeks results, 200 mg q.d., week 8
[15] = 12 weeks results, 200 mg q.d., week 12
[16] = 24 weeks results, 50 mg q.d. non responders switching to 100 mg q.d. at week 12, week 1
[17] = 24 weeks results, 50 mg q.d. non responders switching to 100 mg q.d. at week 12, week 2
[18] = 24 weeks results, 50 mg q.d. non responders switching to 100 mg q.d. at week 12, week 4
[19] = 24 weeks results, 50 mg q.d. non responders switching to 100 mg q.d. at week 12, week 8
[20] = 24 weeks results, 50 mg q.d. non responders switching to 100 mg q.d. at week 12, week 12
[21] = 24 weeks results, 50 mg q.d. non responders switching to 100 mg q.d. at week 12, week 16
[22] = 24 weeks results, 50 mg q.d. non responders switching to 100 mg q.d. at week 12, week 20
[23] = 24 weeks results, 50 mg q.d. non responders switching to 100 mg q.d. at week 12, week 24
[24] = 24 weeks results, 50 mg q.d. responders, week 1
[25] = 24 weeks results, 50 mg q.d. responders, week 2
[26] = 24 weeks results, 50 mg q.d. responders, week 4
[27] = 24 weeks results, 50 mg q.d. responders, week 8
[28] = 24 weeks results, 50 mg q.d. responders, week 12
[29] = 24 weeks results, 50 mg q.d. responders, week 16
[30] = 24 weeks results, 50 mg q.d. responders, week 20
[31] = 24 weeks results, 50 mg q.d. responders, week 24
[32] = 24 weeks results, 100 mg q.d., week 1
[33] = 24 weeks results, 100 mg q.d., week 2
[34] = 24 weeks results, 100 mg q.d., week 4
[35] = 24 weeks results, 100 mg q.d., week 8
[36] = 24 weeks results, 100 mg q.d., week 12
[37] = 24 weeks results, 100 mg q.d., week 16
[38] = 24 weeks results, 100 mg q.d., week 20
[39] = 24 weeks results, 100 mg q.d., week 24
[40] = 24 weeks results, 200 mg q.d., week 1
[41] = 24 weeks results, 200 mg q.d., week 2
[42] = 24 weeks results, 200 mg q.d., week 4
[43] = 24 weeks results, 200 mg q.d., week 8
[44] = 24 weeks results, 200 mg q.d., week 12
[45] = 24 weeks results, 200 mg q.d., week 16
[46] = 24 weeks results, 200 mg q.d., week 20
[47] = 24 weeks results, 200 mg q.d., week 24
[48] = 24 weeks results, placebo switching to 100 mg q.d. at week 12, week 16
[49] = 24 weeks results, placebo switching to 100 mg q.d. at week 12, week 20
[50] = 24 weeks results, placebo switching to 100 mg q.d. at week 12, week 24

`O=C(Nc1nc2cccc(-c3ccc(CN4CCS(=O)(=O)CC4)cc3)n2n1)C1CC1` [Compound 1, cyclopropanecarboxylic acid {5-[4-(1,1-dioxo-thiomorpholin-4-ylmethyl)-phenyl]-[1,2,4]triazolo[1,5-a]pyridin-2-yl}-amide] was tested, and the “Study 2 - ALT Mean CFB” value [1] was −1.4 IU/L, the “Study 2 - ALT Mean percentage CFB” value [1] was −1.29% and the “Study 2 - ALT Mean CFB” value [2] was −2.6 IU/L. For the same molecule, the “Study 2 - ALT Mean percentage CFB” value [2] was −3.25%, the “Study 2 - ALT Mean CFB” value [3] was −2.2 IU/L and the “Study 2 - ALT Mean percentage CFB” value [3] was −3.73%. The “Study 2 - ALT Mean CFB” value [4] was −3.0 IU/L, the “Study 2 - ALT Mean percentage CFB” value [4] was −0.73% and the “Study 2 - ALT Mean CFB” value [5] was −1.4 IU/L. For the same molecule, the “Study 2 - ALT Mean percentage CFB” value [5] was 1.77%, the “Study 2 - ALT Mean CFB” value [6] was 0.4 IU/L and the “Study 2 - ALT Mean percentage CFB” value [6] was 13.98%. For the same molecule, the “Study 2 - ALT Mean CFB” value [7] was 0.7 IU/L, the “Study 2 - ALT Mean percentage CFB” value [7] was 13.25% and the “Study 2 - ALT Mean CFB” value [8] was 0.3 IU/L. The “Study 2 - ALT Mean percentage CFB” value [8] was 17.82%, the “Study 2 - ALT Mean CFB” value [9] was −0.5 IU/L and the “Study 2 - ALT Mean percentage CFB” value [9] was 7.83%. For the same molecule, the “Study 2 - ALT Mean CFB” value [10] was 1.3 IU/L, the “Study 2 - ALT Mean percentage CFB” value [10] was 14.61% and the “Study 2 - ALT Mean CFB” value [11] was −1.8 IU/L. The “Study 2 - ALT Mean percentage CFB” value [11] was −0.92%, the “Study 2 - ALT Mean CFB” value [12] was −1.1 IU/L and the “Study 2 - ALT Mean percentage CFB” value [12] was 1.07%. The “Study 2 - ALT Mean CFB” value [13] was −1.4 IU/L, the “Study 2 - ALT Mean percentage CFB” value [13] was 4.71% and the “Study 2 - ALT Mean CFB” value [14] was −0.8 IU/L. The “Study 2 - ALT Mean percentage CFB” value [14] was 8.41%, the “Study 2 - ALT Mean CFB” value [15] was −1.1 IU/L and the “Study 2 - ALT Mean percentage CFB” value [15] was 5.69%. The “Study 2 - ALT Mean CFB” value [16] was −0.1 IU/L, the “Study 2 - ALT Mean percentage CFB” value [16] was 0.97% and the “Study 2 - ALT Mean CFB” value [17] was −0.2 IU/L. For the same molecule, the “Study 2 - ALT Mean percentage CFB” value [17] was −0.54%, the “Study 2 - ALT Mean CFB” value [18] was 0.6 IU/L and the “Study 2 - ALT Mean percentage CFB” value [18] was 4.48%. The “Study 2 - ALT Mean CFB” value [19] was −1.3 IU/L, the “Study 2 - ALT Mean percentage CFB” value [19] was −4.46% and the “Study 2 - ALT Mean CFB” value [20] was −0.9 IU/L. The “Study 2 - ALT Mean percentage CFB” value [20] was −1.26%, the “Study 2 - ALT Mean CFB” value [21] was 0.9 IU/L and the “Study 2 - ALT Mean percentage CFB” value [21] was 6.27%. For the same molecule, the “Study 2 - ALT Mean CFB” value [22] was 0.3 IU/L, the “Study 2 - ALT Mean percentage CFB” value [22] was 4.86% and the “Study 2 - ALT Mean CFB” value [23] was 3.2 IU/L. The “Study 2 - ALT Mean percentage CFB” value [23] was 22.47%, the “Study 2 - ALT Mean CFB” value [24] was −1.7 IU/L and the “Study 2 - ALT Mean percentage CFB” value [24] was −1.89%. For the same molecule, the “Study 2 - ALT Mean CFB” value [25] was −3.3 IU/L, the “Study 2 - ALT Mean percentage CFB” value [25] was −3.98% and the “Study 2 - ALT Mean CFB” value [26] was −3.0 IU/L. For the same molecule, the “Study 2 - ALT Mean percentage CFB” value [26] was −5.93%, the “Study 2 - ALT Mean CFB” value [27] was −3.4 IU/L and the “Study 2 - ALT Mean percentage CFB” value [27] was 0.30%. For the same molecule, the “Study 2 - ALT Mean CFB” value [28] was −1.6 IU/L, the “Study 2 - ALT Mean percentage CFB” value [28] was 2.63% and the “Study 2 - ALT Mean CFB” value [29] was −0.2 IU/L. The “Study 2 - ALT Mean percentage CFB” value [29] was 17.03%, the “Study 2 - ALT Mean CFB” value [30] was −0.5 IU/L and the “Study 2 - ALT Mean percentage CFB” value [30] was 8.38%. The “Study 2 - ALT Mean CFB” value [31] was −0.2 IU/L, the “Study 2 - ALT Mean percentage CFB” value [31] was 16.54% and the “Study 2 - ALT Mean CFB” value [32] was 0.4 IU/L. The “Study 2 - ALT Mean percentage CFB” value [32] was 13.98%, the “Study 2 - ALT Mean CFB” value [33] was 0.7 IU/L and the “Study 2 - ALT Mean percentage CFB” value [33] was 13.25%. The “Study 2 - ALT Mean CFB” value [34] was 0.3 IU/L, the “Study 2 - ALT Mean percentage CFB” value [34] was 17.82% and the “Study 2 - ALT Mean CFB” value [35] was −0.5 IU/L. For the same molecule, the “Study 2 - ALT Mean percentage CFB” value [35] was 7.83%, the “Study 2 - ALT Mean CFB” value [36] was 1.3 IU/L and the “Study 2 - ALT Mean percentage CFB” value [36] was 14.61%. The “Study 2 - ALT Mean CFB” value [37] was 4.1 IU/L, the “Study 2 - ALT Mean percentage CFB” value [37] was 25.66% and the “Study 2 - ALT Mean CFB” value [38] was 1.8 IU/L. The “Study 2 - ALT Mean percentage CFB” value [38] was 37.63%, the “Study 2 - ALT Mean CFB” value [39] was 0.4 IU/L and the “Study 2 - ALT Mean percentage CFB” value [39] was 20.33%. The “Study 2 - ALT Mean CFB” value [40] was −1.8 IU/L, the “Study 2 - ALT Mean percentage CFB” value [40] was −0.92% and the “Study 2 - ALT Mean CFB” value [41] was −1.1 IU/L. For the same molecule, the “Study 2 - ALT Mean percentage CFB” value [41] was 1.07%, the “Study 2 - ALT Mean CFB” value [42] was −1.4 IU/L and the “Study 2 - ALT Mean percentage CFB” value [42] was 4.71%. For the same molecule, the “Study 2 - ALT Mean CFB” value [43] was −0.8 IU/L, the “Study 2 - ALT Mean percentage CFB” value [43] was 8.41% and the “Study 2 - ALT Mean CFB” value [44] was −1.1 IU/L. For the same molecule, the “Study 2 - ALT Mean percentage CFB” value [44] was 5.69%, the “Study 2 - ALT Mean CFB” value [45] was 0.4 IU/L and the “Study 2 - ALT Mean percentage CFB” value [45] was 17.47%. The “Study 2 - ALT Mean CFB” value [46] was −0.6 IU/L, the “Study 2 - ALT Mean percentage CFB” value [46] was 6.69% and the “Study 2 - ALT Mean CFB” value [47] was −1.3 IU/L. For the same molecule, the “Study 2 - ALT Mean percentage CFB” value [47] was 5.83%, the “Study 2 - ALT Mean CFB” value [48] was 0.4 IU/L and the “Study 2 - ALT Mean percentage CFB” value [48] was 15.03%. For the same molecule, the “Study 2 - ALT Mean CFB” value [49] was 0.8 IU/L, the “Study 2 - ALT Mean percentage CFB” value [49] was 17.28% and the “Study 2 - ALT Mean CFB” value [50] was 0.9 IU/L. The “Study 2 - ALT Mean percentage CFB” value [50] was 18.10%.
